# Test results reported in patent US20250009779A1 (priority 2021, published 2025).
# Entries after “also recorded” stand apart in the source; their conditions may differ.
# Tests used:
# pDCs [1] = assay type: cell-based, human
# pDCs [2] = assay type: cell-based, human; remark: listed apart in the source
# pDCs [3] = system: pDCs
# pDCs [4] = assay type: cell-based, human; remark: listed apart in the source
# pDCs [5] = assay type: cell-based, human; remark: listed apart in the source
# macrophages [6] = assay: FAIRE assay on promoter regions of IL6, TNF and IL12p40 in macrophages; assay type: cell-based, human; conditions: cells primed with IFN-α 24 hours, then LPS 3 hours, FIG. 4G
# macrophages [7] = assay: Immunoblot of NF-κB and MAPKs signaling in macrophages; assay type: cell-based, human; conditions: whole cell lysates, FIG. 20B
# macrophages [8] = assay type: cell-based, human
molecule,measurement,setting,value
"CC(=O)C(=O)[O-].[Na+] [pyruvate, sodium pyruvate]",IFNA expression by pDCs under ER stress condition,pDCs [1],restore
same,intracellular ATP levels under ER stress,pDCs [2],restored
Cc1ccc(OCCN(C)C(=O)Cn2cc(NC(=O)CCOc3ccccc3)cn2)cc1 [IXA4],PHGDH gene expression,pDCs [1],induced
"O=C(O)CCCCC(CCSCc1ccccc1)SCc1ccccc1 (centres unmarked) [CPI-613, 6,8-bis-benzylthio-octanoic acid]",XBP1 splicing,pDCs [1],no effect
same,"expression of ISGs such as GBP1, IRF7, ISG54, MxB, CXCL10",pDCs [1],inhibited
same,expression of PHGDH,pDCs [1],no effect
same,expression of IFN-α (IFNA),pDCs [1]; 5 h,inhibited
same,cell viability,pDCs [3],no effect
same,secretion of IFN-α,pDCs [4],inhibited
same,intracellular ATP levels in TLR9-activated pDCs,pDCs [2],reduced
Cc1cc(C)nc(NC(=S)N2CCN(Cc3ccc(C(F)(F)F)cc3)CC2)c1 [NCT-503],IFNA expression by TLR9-activated pDCs facing ER stress,pDCs [1],restored
same,intracellular pyruvate levels in ER stressed-pDCs,pDCs [5],restored
same,intracellular ATP levels under ER stress,pDCs [2],restored
C/C=C(/C)C(=O)O[C@H]1C(C)=C2[C@H]([C@@H]1OC(=O)CCCCCCC)[C@@](C)(OC(C)=O)C[C@H](OC(=O)CCC)[C@@]1(O)[C@H]2OC(=O)[C@@]1(C)O [thapsigargin],gene encoding phosphoglycerate dehydrogenase (PHGDH) expression,pDCs [1],markedly induced
same,induction of serine amino acid biosynthesis genes,pDCs [1],induction
"O.O=C([O-])CCC(=O)C(=O)[O-].[Na+].[Na+] [α-KG, α-ketoglutaric acid disodium salt hydrate]",intracellular ATP levels under ER stress,pDCs [2],restored
N[C@@H](CO)C(=O)O [L-serine],IFN-α secretion by TLR9-activated pDCs,pDCs [4],unaltered
IFN-α,chromatin accessibility of IL6 and TNF promoters,macrophages [6],significantly increased; also recorded: increase
same,TLR4-induced IKBα degradation or activation of MAPKs ERK and p38,macrophages [7],minimal effects; also recorded: does not increase
same,"LPS-induced response in macrophages: TNF, IL6, IL1B, IL12B and IFNB",macrophages [8],superinduction; also recorded: increases
same,TLR4 expression or of the 2 subunits of the IFNAR in the macrophages,macrophages [8],little change
same,chemokine receptors expression on macrophages,macrophages [8],significant impact
same,"inflammatory genes (IL-1β, IL-12p40, IFN-β and CXCL10) expression",macrophages [8],dose-dependent manner
